Reference: US20200165574A1, “METHODS OF PREPARING NAÏVE HUMAN PLURIPOTENT STEM CELLS” (REGENTS OF THE UNIVERSITY OF MINNESOTA, priority 2017, published 2020)
“Also recorded” adds a separate entry of the source.

B1: full-length recombinant vitronectin: xeno-free recombinant full-length vitronectin (PeproTech), coated on plate at 5 μg/mL as culture substrate (protein, UniProt P04004 1-478, looked up)
chain: MAPLRPLLILALLAWVALADQESCKGRCTEGFNVDKKCQCDELCSYYQSCCTDYTAECKPQVTRGDVFTMPEDEYTVYDDGEEKNNATVHEQVGGPSLTSDLQAQSKGNPEQTPVLKPEEEAPAPEVGASKPEGIDSRPETLHPGRPQPPAEEELCSGKPFDAFTDLKNGSLFAFRGQYCYELDEKAVRPGYPKLIRDVWGIEGPIDAAFTRINCQGKTYLFKGSQYWRFEDGVLDPDYPRNISDGFDGIPDNVDAALALPAHSYSGRERVYFFKGKQYWEYQFQHQPSQEECEGSSLSAVFEHFAMMQRDSWEDIFELLFWGRTSAGTRQPQFISRDWHGVPGQVDAAMAGRIYISGMAPRPSLAKKQRFRHRNRKGYRSQRGHSRGRNQNSRRPSRATWLSLFSSEESNLGANNYDDYRMDWLVPATCEPIQSVFFFSGDKYYRVNLRTRRVDTVDPPYPRSIAQYWLGCPAPGHL
modifications: full-length
notes: xeno-free recombinant full-length vitronectin (PeproTech), coated on plate at 5 μg/mL as culture substrate

Assays:
Type in all cases: cell-based, human
naïve HPSCs [1] = test: ERK inhibitor assay, naïve PSCs; conditions: naïve HPSCs in RSet media, additional 10 nM ERK inhibitor, imaged each day for 4 days; listed as PD325901
Method: (§1) One day after passaging, 10 nM ERK inhibitor PD0325901 (PZ0162, Sigma-Aldrich, St. Louis, Mo.) was added to naïve or primed PSCs. Cells were imaged each day for 4 days to follow morphology changes.

primed HPSCs [2] = test: ERK inhibitor assay, primed PSCs; conditions: 10 nM ERK inhibitor in media, imaged each day for 4 days
Method: as §1

primed HPSCs [3] = test: Feeder-free transition of primed HPSCs to the naïve state on a culture substrate; conditions: RSet media, substrate-coated plate
Method: Primed induced pluripotent stem cell (PCBC16iPS) (Ye et al. (2013) PLoS ONE 8 (1):e53764) to be used for naïve cell derivation were cultured for at least two passages in mTeSR1 medium (STEMCELL Technologies, Vancouver, Canada) in either normoxic (20% O2, 5% CO2) or hypoxic conditions (5% O2, 5% CO2). Primed iPSCs were treated with Gentle Cell Dissociation Reagent (STEMCELL Technologies, Vancouver, Canada) for 5 minutes at room temperature and removed from the plate with a 5 milliliter (mL) pipette in 1 mL TeSR1 medium. Aggregates of 250 primed iPSCs were plated in 1 mL mTeSR1 (STEMCELL Technologies, Vancouver, Canada) per well of a 12-well tissue culture treated plate (Corning, Inc., Corning, N.Y.) coated with 5 micrograms per milliliter (μg/mL) full-length vitronectin (PeproTech, Rocky Hill, N.J.) (Parr et al. (2016) Methods in Molecular Biology 1357:221-9). The plate had been previously coated with vitronectin at 37° C. for 2 hours per manufacturer's protocol. The plated cells were incubated overnight at 37° C., to allow adherence to the vitronectin coated plate. The cells may be incubated in either normoxic or hypoxic conditions, and typically were incubated under the same conditions used to maintain the primed HPSC culture. […] Cells were monitored for compaction and defined colony edges. […]

naïve HPSCs [4] = test: Karyotype of transitioned naïve HPSCs (high-resolution G banding); conditions: after 10 passages in RSet media
Excerpt: Naïve HPSCs were examined by high-resolution G banding after 10 passages in RSet medium.

| Molecule | differentiation / maintenance of undifferentiated state (morphology changes) (naïve HPSCs [1]) | differentiation / maintenance of pluripotency (morphology changes) (primed HPSCs [2]) | support of transition from primed to naïve pluripotent state (primed HPSCs [3]) | karyotype of naïve HPSCs derived on the substrate (naïve HPSCs [4]) |
| --- | --- | --- | --- | --- |
| O=C(NOC[C@H](O)CO)c1ccc(F)c(F)c1Nc1ccc(I)cc1F [PD0325901] | maintain their undifferentiated state | induces differentiation; also recorded: displayed immediate differentiation | – | – |
| B1 | – | – | supports the successful transition | normal karyotype |
